Assay results as given in US20120122692A1, “Method and Formulation for Eliminating Moss with Oregano Oil” (priority 2006, published 2012).

Columns and labels:
silvery thread moss = assay: Field test of spray treatments on silvery thread moss in a creeping bentgrass putting green: percent moss cover; type: in vivo, Bryum argenteum
Method: (§1) Aqueous solutions of oregano oil extract were tested on silvery thread moss growing on turf grass. The turf grass was a mature stand of “Penncross” creeping bentgrass Agrostis stolonifera L. on a sand based rootzone. IA grid of six inch square plots were arranged on the turf. Each plot was initially rated for percent moss cover on July, 2006. Only plots with greater than 50% moss cover tracked for this test. Table 1 summarized the 79 treatments tested. Oregano oil extract formulations were compared with carefentrazone and a non-treated control. Several oregano oil formulation includes a surfactant, and these formation are marked as ORG AS, ORG BS, ORG CS, and ORG DS. Each formulation was applied as a squirt or pump from a spray bottle containing the formulation. The spray bottle used was one quart bottle that delivered 2.8 ml per pump onto a four inch square are. All of the formulations were applied at least once on Jul. 6, 2006. Sequential applications were also additionally performed bi-weekly on Jul. 20, Aug. 17 and Sep. 12, 2006 for a total of one, three, or four bi-weekly application. Each carefentrazone application was made at a recommended rate of 6.7 fl. Oz. product/A.
(§2) The data from the test were analyzed using PROC ANOVA of the SAS software, Version 8 of the SAS System for Windows (SAS Institute, 1999). Means were separated (alpha=0.05) by Fischer's protected LSD (Fischer, 1966). Turf quality was rated on a scale of 1-10, where 10=best turf with no phyoxicity, 6=lowest acceptable turf quality and turf phytotoxicity, 1=worst turf quality with most phytotosixity and completely brown turf.

[1] = system: “Penncross” creeping bentgrass Agrostis stolonifera L.; assay: Field test of spray treatments on a creeping bentgrass putting green: turf quality / phytotoxicity rating; type: in vivo; conditions: scale 1-10: 10=best turf, no phytotoxicity, 6=lowest acceptable, 1=completely brown turf
Method: as §1, §2

Row | SMILES | % Moss Cover (silvery thread moss; 9 Oct (Oct. 9, 2006)) | % Moss Cover (silvery thread moss; 12 Sep) | % Moss Cover (silvery thread moss; 17 Aug) | Turf Quality ([1]; 9 Oct) | Turf Quality ([1]; 12 Sep) | Turf Quality ([1]; 17 Aug)
1 | Cc1nn(-c2cc(CC(Cl)C(=O)O)c(Cl)cc2F)c(=O)n1C(F)F (stereo not drawn) [ES11, Carfentrazone] | 77.0% | 65.8% | 82.0% | 10.0 | 10.0 | 10.0
2 | Cc1nn(-c2cc(CC(Cl)C(=O)O)c(Cl)cc2F)c(=O)n1C(F)F (stereo not drawn) [ES13, Carfentrazone] | 63.0% | 75.0% | 81.8% | 10.0 | 10.0 | 10.0
3 | Cc1nn(-c2cc(CC(Cl)C(=O)O)c(Cl)cc2F)c(=O)n1C(F)F (stereo not drawn) [ES16, Carfentrazone] | 55.8% | 61.8% | 55.8% | 10.0 | 10.0 | 10.0
4 | Cc1nn(-c2cc(CC(Cl)C(=O)O)c(Cl)cc2F)c(=O)n1C(F)F (stereo not drawn) [Treatment E11, Carfentrazone] | 48.0% | 66.0% | 60.0% | 10.0 | 10.0 | 10.0
5 | Cc1nn(-c2cc(CC(Cl)C(=O)O)c(Cl)cc2F)c(=O)n1C(F)F (stereo not drawn) [Treatment E13, Carfentrazone] | 70.8% | 73.8% | 68.8% | 10.0 | 10.0 | 9.6
6 | Cc1nn(-c2cc(CC(Cl)C(=O)O)c(Cl)cc2F)c(=O)n1C(F)F (stereo not drawn) [Treatment E16, Carfentrazone] | 55.0% | 59.0% | 58.0% | 9.6 | 10.0 | 10.0
